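A five-concentration, 48-hour dose response in 96-well plates underlies each endpoint, interpolated linearly between surrounding concentrations. At the GI50, growth is halved.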 Active and inactive are the calls of the source. Rule as the data show it: active = GI50 up to about 1.1 µM and inactive = higher.
How the values were obtained:
Assay in all cases: DTP human tumour cell line panel, 48 h
786-0 = test system: 786-0
A498 = test system: A498
A549 = test system: A549
ACHN = test system: ACHN
BT-549 = test system: BT-549
CAKI-1 = test system: CAKI-1
CCRF-CEM = test system: CCRF-CEM
COLO 205 = test system: COLO 205
DU-145 = test system: DU-145
EKVX = test system: EKVX
HCC 2998 = test system: HCC 2998
HCT-116 = test system: HCT-116
HL-60 = test system: HL-60
HOP-62 = test system: HOP-62
HOP-92 = test system: HOP-92
HT-29 = test system: HT-29
Hs-578T = test system: Hs-578T
IGROV-1 = test system: IGROV-1
K562 = test system: K562
KM12 = test system: KM12
LOX IMVI = test system: LOX IMVI
M14 = test system: M14
MCF7 = test system: MCF7
MDA-MB-231 = test system: MDA-MB-231
MDA-MB-435 = test system: MDA-MB-435
MDA-N = test system: MDA-N
MOLT-4 = test system: MOLT-4
Malme-3M = test system: Malme-3M
NCI-H226 = test system: NCI-H226
NCI-H23 = test system: NCI-H23
NCI-H460 = test system: NCI-H460
NCI-H522 = test system: NCI-H522
NCI/ADR-RES = test system: NCI/ADR-RES
OVCAR-3 = test system: OVCAR-3
OVCAR-4 = test system: OVCAR-4
OVCAR-5 = test system: OVCAR-5
OVCAR-8 = test system: OVCAR-8
PC-3 = test system: PC-3
RPMI-8226 = test system: RPMI-8226
RXF 393 = test system: RXF 393
SF-268 = test system: SF-268
SF-295 = test system: SF-295
SF-539 = test system: SF-539
SK-MEL-28 = test system: SK-MEL-28
SK-MEL-2 = test system: SK-MEL-2
SK-MEL-5 = test system: SK-MEL-5
SK-OV-3 = test system: SK-OV-3
SN12C = test system: SN12C
SNB-19 = test system: SNB-19
SNB-75 = test system: SNB-75
SR = test system: SR
SW-620 = test system: SW-620
U-251 = test system: U-251
UACC-257 = test system: UACC-257
UACC-62 = test system: UACC-62
UO-31 = test system: UO-31
HCT-15 = test system: HCT-15
T47D = test system: T47D
TK-10 = test system: TK-10

`N#C/C=C\c1ccc(-c2cc(C(F)(F)F)cc(C(F)(F)F)c2)o1` was tested, and the GI50 (786-0) was 27.2 µM (inactive), the GI50 (A498) was 26.5 µM (inactive) and the GI50 (A549) was 91.6 µM (inactive). The GI50 (ACHN) was > 100 µM (inactive), the GI50 (BT-549) was 36.7 µM (inactive) and the GI50 (CAKI-1) was 35.3 µM (inactive). The GI50 (CCRF-CEM) was 47 µM (inactive), the GI50 (COLO 205) was > 100 µM (inactive) and the GI50 (DU-145) was > 100 µM (inactive). For the same molecule, the GI50 (EKVX) was 34.1 µM (inactive), the GI50 (HCC 2998) was 21.6 µM (inactive) and the GI50 (HCT-116) was 35.4 µM (inactive). For the same molecule, the GI50 (HL-60) was 17.7 µM (inactive), the GI50 (HOP-62) was 21.1 µM (inactive) and the GI50 (HOP-92) was 20.7 µM (inactive). The GI50 (HT-29) was 94.4 µM (inactive), the GI50 (Hs-578T) was 18.4 µM (inactive) and the GI50 (IGROV-1) was 47.2 µM (inactive). For the same molecule, the GI50 (K562) was 42.1 µM (inactive), the GI50 (KM12) was 49 µM (inactive) and the GI50 (LOX IMVI) was 38.7 µM (inactive). The GI50 (M14) was 56.4 µM (inactive), the GI50 (MCF7) was 71.8 µM (inactive) and the GI50 (MDA-MB-231) was 36.8 µM (inactive). For the same molecule, the GI50 (MDA-MB-435) was 2.57 µM (inactive), the GI50 (MDA-N) was 22 µM (inactive) and the GI50 (MOLT-4) was 57.4 µM (inactive). For the same molecule, the GI50 (Malme-3M) was 64.4 µM (inactive), the GI50 (NCI-H226) was 55.8 µM (inactive) and the GI50 (NCI-H23) was 13.3 µM (inactive). The GI50 (NCI-H460) was 86.3 µM (inactive), the GI50 (NCI-H522) was 48 µM (inactive) and the GI50 (NCI/ADR-RES) was 41.6 µM (inactive). The GI50 (OVCAR-3) was > 100 µM (inactive), the GI50 (OVCAR-4) was 91.8 µM (inactive) and the GI50 (OVCAR-5) was > 100 µM (inactive). The GI50 (OVCAR-8) was 23 µM (inactive), the GI50 (PC-3) was > 100 µM (inactive) and the GI50 (RPMI-8226) was > 100 µM (inactive). For the same molecule, the GI50 (RXF 393) was 44.6 µM (inactive), the GI50 (SF-268) was 25.9 µM (inactive) and the GI50 (SF-295) was 19.4 µM (inactive). The GI50 (SF-539) was 10 µM (inactive), the GI50 (SK-MEL-28) was 45.3 µM (inactive) and the GI50 (SK-MEL-2) was 15.6 µM (inactive). The GI50 (SK-MEL-5) was 14.9 µM (inactive), the GI50 (SK-OV-3) was 30.3 µM (inactive) and the GI50 (SN12C) was 35.6 µM (inactive). The GI50 (SNB-19) was 30 µM (inactive), the GI50 (SNB-75) was 18.7 µM (inactive) and the GI50 (SR) was 19.3 µM (inactive). The GI50 (SW-620) was 49.7 µM (inactive), the GI50 (U-251) was 14.4 µM (inactive) and the GI50 (UACC-257) was > 100 µM (inactive). The GI50 (UACC-62) was 23.3 µM (inactive) and the GI50 (UO-31) was > 100 µM (inactive).

`O=S(=O)(c1ccccc1)c1ccc(-c2nc(-c3ccc4c(c3)Sc3ccccc3S4)cs2)cc1` was tested, and the GI50 (786-0) was 17.2 µM (inactive), the GI50 (A549) was > 100 µM (inactive) and the GI50 (ACHN) was 38.7 µM (inactive). The GI50 (BT-549) was 30.3 µM (inactive), the GI50 (CAKI-1) was > 100 µM (inactive) and the GI50 (CCRF-CEM) was 41.9 µM (inactive). For the same molecule, the GI50 (COLO 205) was > 100 µM (inactive), the GI50 (DU-145) was > 100 µM (inactive) and the GI50 (EKVX) was 39.8 µM (inactive). The GI50 (HCC 2998) was 35.5 µM (inactive), the GI50 (HCT-116) was 73.3 µM (inactive) and the GI50 (HCT-15) was greater than 100 µM. For the same molecule, the GI50 (HL-60) was > 100 µM (inactive), the GI50 (HOP-62) was 15.9 µM (inactive) and the GI50 (HOP-92) was 20.7 µM (inactive). The GI50 (HT-29) was > 100 µM (inactive), the GI50 (Hs-578T) was 8.69 µM (inactive) and the GI50 (K562) was 69 µM (inactive). For the same molecule, the GI50 (KM12) was > 100 µM (inactive), the GI50 (LOX IMVI) was > 100 µM (inactive) and the GI50 (M14) was 36.1 µM (inactive). For the same molecule, the GI50 (MCF7) was 61 µM (inactive), the GI50 (MDA-MB-231) was 20.5 µM (inactive) and the GI50 (MDA-MB-435) was > 100 µM (inactive). The GI50 (MOLT-4) was 31.6 µM (inactive), the GI50 (Malme-3M) was 39.5 µM (inactive) and the GI50 (NCI-H226) was 67 µM (inactive). The GI50 (NCI-H23) was 11.2 µM (inactive), the GI50 (NCI-H460) was > 100 µM (inactive) and the GI50 (OVCAR-3) was > 100 µM (inactive). The GI50 (OVCAR-4) was > 100 µM (inactive), the GI50 (OVCAR-5) was > 100 µM (inactive) and the GI50 (OVCAR-8) was 71.9 µM (inactive). For the same molecule, the GI50 (PC-3) was > 100 µM (inactive), the GI50 (RPMI-8226) was > 100 µM (inactive) and the GI50 (RXF 393) was 15.8 µM (inactive). For the same molecule, the GI50 (SF-268) was 26.7 µM (inactive), the GI50 (SF-295) was 16.5 µM (inactive) and the GI50 (SF-539) was 49.5 µM (inactive). For the same molecule, the GI50 (SK-OV-3) was 18.9 µM (inactive), the GI50 (SN12C) was > 100 µM (inactive) and the GI50 (SNB-19) was 11.7 µM (inactive). For the same molecule, the GI50 (SNB-75) was 10.8 µM (inactive), the GI50 (SR) was 32.9 µM (inactive) and the GI50 (SW-620) was > 100 µM (inactive). For the same molecule, the GI50 (T47D) was 61.8 µM (inactive), the GI50 (TK-10) was 22.1 µM (inactive) and the GI50 (U-251) was 27.9 µM (inactive). For the same molecule, the GI50 (UACC-257) was > 100 µM (inactive), the GI50 (UACC-62) was 25.6 µM (inactive) and the GI50 (UO-31) was > 100 µM (inactive).

In the case of `CCN(CC)c1c(C(C)(C)C)c(=O)n2ccsc2c1OC(C)=O`, the GI50 (786-0) is reported as 19.9 µM (inactive), the GI50 (A498) is reported as 19.2 µM (inactive) and the GI50 (A549) is reported as 15 µM (inactive). The GI50 (ACHN) was 16.2 µM (inactive), the GI50 (BT-549) was 15.5 µM (inactive) and the GI50 (CAKI-1) was 18.6 µM (inactive). For the same molecule, the GI50 (CCRF-CEM) was 49 µM (inactive), the GI50 (COLO 205) was 16.9 µM (inactive) and the GI50 (DU-145) was 19.9 µM (inactive). For the same molecule, the GI50 (EKVX) was 15.1 µM (inactive), the GI50 (HCC 2998) was 17.4 µM (inactive) and the GI50 (HCT-116) was 13.6 µM (inactive). The GI50 (HCT-15) was 16.5 µM, the GI50 (HL-60) was 29.4 µM (inactive) and the GI50 (HOP-62) was 13.3 µM (inactive). For the same molecule, the GI50 (HOP-92) was 17.4 µM (inactive), the GI50 (HT-29) was 14.8 µM (inactive) and the GI50 (Hs-578T) was 22.9 µM (inactive). The GI50 (IGROV-1) was 16.8 µM (inactive), the GI50 (K562) was 17.6 µM (inactive) and the GI50 (KM12) was 15.5 µM (inactive). The GI50 (LOX IMVI) was 17.4 µM (inactive), the GI50 (M14) was 17.3 µM (inactive) and the GI50 (MCF7) was 15.6 µM (inactive). For the same molecule, the GI50 (MDA-MB-231) was 17.8 µM (inactive), the GI50 (MDA-MB-435) was 18 µM (inactive) and the GI50 (MDA-N) was 18.6 µM (inactive). The GI50 (MOLT-4) was 17.8 µM (inactive), the GI50 (Malme-3M) was 12.5 µM (inactive) and the GI50 (NCI-H226) was 15.4 µM (inactive). For the same molecule, the GI50 (NCI-H23) was 16.1 µM (inactive), the GI50 (NCI-H460) was 16.5 µM (inactive) and the GI50 (NCI-H522) was 13.4 µM (inactive). The GI50 (NCI/ADR-RES) was 13 µM (inactive), the GI50 (OVCAR-3) was 17.1 µM (inactive) and the GI50 (OVCAR-4) was 15.2 µM (inactive). For the same molecule, the GI50 (OVCAR-5) was 15.8 µM (inactive), the GI50 (OVCAR-8) was 15 µM (inactive) and the GI50 (PC-3) was 11.2 µM (inactive). For the same molecule, the GI50 (RPMI-8226) was 13.8 µM (inactive), the GI50 (RXF 393) was 16.9 µM (inactive) and the GI50 (SF-268) was 15.2 µM (inactive). For the same molecule, the GI50 (SF-295) was 17.1 µM (inactive), the GI50 (SF-539) was 19.1 µM (inactive) and the GI50 (SK-MEL-28) was 17.1 µM (inactive). For the same molecule, the GI50 (SK-MEL-2) was 17.1 µM (inactive), the GI50 (SK-MEL-5) was 18.1 µM (inactive) and the GI50 (SK-OV-3) was 18.2 µM (inactive). The GI50 (SN12C) was 18.2 µM (inactive), the GI50 (SNB-19) was 16.6 µM (inactive) and the GI50 (SNB-75) was 15 µM (inactive). For the same molecule, the GI50 (SW-620) was 16.9 µM (inactive), the GI50 (TK-10) was 19.8 µM (inactive) and the GI50 (U-251) was 17 µM (inactive). The GI50 (UACC-257) was 16.5 µM (inactive), the GI50 (UACC-62) was 16.9 µM (inactive) and the GI50 (UO-31) was 17.9 µM (inactive).
